The text below walks through data of patent US10160767B2 (Institute of Pharmacology and Toxicology Academy of …, priority 2014, dated 2018).

Where a name gives a salt, the structure may show the parent alone. Bounds are passed on as bounds.

One data set has as its system tumor cell A549. As to the kind of experiment: Tumor cell inhibition, Cell Titer-Glo cell viability. The following applies: Homo sapiens, A549 cells, 72 h. The format is cell-based. On the procedure: The activities of example compounds to tumor cell A549 were evaluated.
Experimental materials: DMEM high-glucose cell culture media (Hyclone Company), fetal calf serum (FBS) (Gibco Company), penicillin and streptomycin were purchased from North China Pharmaceutical Co., Ltd, phosphate buffer saline (PBS) was purchased from Gibco Company, Cell Titer-Glo® cell viability detection reagent was purchased from Promega Company, pancreatin and dimethylsulfoxide (DMSO) were products of Sigma Company. A549 cell line (human lung adenocarcinoma cell line) was purchased from ATCC.
(§1) The cells were inoculated on a 96-well plate with white wall and penetrative bottom (Costar) in amount of 5000 cells per well, cultured at condition of 37° C., 5% CO2 for 24 h. The compounds to be tested were dissolved with DMSO and diluted to 100 mM, to obtain mother liquids of the compounds.
DMEM culture solution containing 2% FBS was used to diluted the compounds, in which concentration gradients were 3, and concentration range was 100 μM to 3 nM. The compounds in various dilution degrees were added to the cultured cells on the 96-well plate, 100 μl per well. Culture was performed at 37° C., CO2 for 72 h, supernatant was discarded, and cell viability detection test was performed.
(§2) AfterCell Titer-Glo® reaction buffer solution was mixed with isometric substrate, the mixture was added to 96-well plate, 100 μl per well. Cell lysis was induced by horizontally shaking for 4 min. Reaction signal was stabilized by balancing at room temperature for 15 min. Chemiluminescence units in each well of the 96-well plate were detected by using chemiluminescence detector.
Inhibition rates at different dilution degrees of each compound were calculated according to chemiluminescence value of each well, and Origin 8.0 software was used for S-type curve fitting of each compound, and for calculating EC50 value.

The test system of data set [1] is multi-drug resistant tumor cell line MES-SA. The experiment in a line: Inhibition of drug-resistant tumor cell line, Cell Titer-Glo cell viability; therapeutic index against MRC5 cells. It counts as cell-based. The following applies: Homo sapiens, 72 h. On the procedure:
The activity of example compounds to multi-drug resistant tumor cell line MES-SA was evaluated.
Experimental materials: DMEM high-glucose cell culture media (Hyclone Company), fetal calf serum (FBS) (Gibco Company), penicillin and streptomycin were purchased from North China Pharmaceutical Co., Ltd, phosphate buffer saline (PBS) was purchased from Gibco Company, Cell Titer-Glo® cell viability detection reagent was purchased from Promega Company, pancreatin and dimethylsulfoxide (DMSO) were products of Sigma Company. MES-SA cell line (human uterine sarcoma cell line) was purchased from ATCC. MRC5 cell (human embryonic lung fibroblast) was purchased from ATCC.
as §1
DMEM culture solution containing 2% FBS was used to diluted the compounds, in which concentration gradients were 3, and concentration range was 100 μM to 0.046 μM. The compounds in various dilution degrees were added to the cultured cells on the 96-well plate, 100 μl per well. Culture was performed at 37° C., CO2 for 72 h, supernatant was discarded, and cell viability detection test was performed.
as §2
Inhibition rates at different dilution degrees of each compound were calculated according to chemiluminescence value of each well, and Origin 8.0 software was used for S-type curve fitting of each compound, and for calculating EC50 value. The ratio of EC50 value of compound for MRC5 cell to EC50 value of compound for MES-SA cell was used as therapeutic index for the compound.

Data set [2] can be described thus: Solubility test (Chinese Pharmacopoeia 2010, Part II). The format is physicochemical. The settings on record: water, thermodynamic from solid.

Consider `CO[C@H]1C[C@@H]2CC[C@@H](C)[C@@](O)(O2)C(=O)C(=O)N2CCCC[C@H]2C(=O)O[C@H]([C@H](C)C[C@@H]2CC[C@@H](O)[C@H](OC)C2)CC(=O)[C@H](C)/C=C(\C)[C@@H](OC(=O)C[n+]2cccc(C)c2)[C@@H](OC)C(=O)[C@H](C)C[C@H](C)/C=C/C=C/C=C/1C.[Br-]` [Example 15, 31-O-carbonylmethyl-(3-methyl-pyridine bromide salt-1-yl)-rapamycin], for which the melting point lay within 138 to 140 °C. The compound further had an IC50 with tumor cell A549 of 52.7 µM. In data set [1], this compound came in with an IC50 of less than 0.046 µM.

As for `CO[C@H]1C[C@@H]2CC[C@@H](C)[C@@](O)(O2)C(=O)C(=O)N2CCCC[C@H]2C(=O)O[C@H]([C@H](C)C[C@@H]2CC[C@@H](O)[C@H](OC)C2)CC(=O)[C@H](C)/C=C(\C)[C@@H](OC(=O)C[n+]2csc(C)c2C)[C@@H](OC)C(=O)[C@H](C)C[C@H](C)/C=C/C=C/C=C/1C` [Example 6, 31-O-carbonylmethyl-(4,5-dimethyl-thiazole bromide salt-3-yl)-rapamycin], the IC50 was 52.3 µM with tumor cell A549 and less than 0.046 µM in data set [1].

Take `CO[C@H]1C[C@@H]2CC[C@@H](C)[C@@](O)(O2)C(=O)C(=O)N2CCCC[C@H]2C(=O)O[C@H]([C@H](C)C[C@@H]2CC[C@@H](OC(=O)C[n+]3csc(C)c3C)[C@H](OC)C2)CC(=O)[C@H](C)/C=C(\C)[C@@H](OC(=O)C[n+]2csc(C)c2C)[C@@H](OC)C(=O)[C@H](C)C[C@H](C)/C=C/C=C/C=C/1C.[Br-].[Br-]` [Example 4, 31,42-O-carbonylmethyl-(4,5-dimethyl-thiazole bromide salt-3-yl)-rapamycin]: the IC50 in the data set with tumor cell A549 is 6.23 µM; in data set [1], less than 0.046 µM. In data set [2], this compound yielded a solubility of 100 mg/mL.

As for `CO[C@H]1C[C@@H]2CC[C@@H](C)[C@@](O)(O2)C(=O)C(=O)N2CCCC[C@H]2C(=O)O[C@H]([C@H](C)C[C@@H]2CC[C@@H](OC(=O)C[n+]3cccc(O)c3)[C@H](OC)C2)CC(=O)[C@H](C)/C=C(\C)[C@@H](OC(=O)C[n+]2cccc(O)c2)[C@@H](OC)C(=O)[C@H](C)C[C@H](C)/C=C/C=C/C=C/1C.[Br-].[Br-]` [Example 8, 31,42-O-carbonylmethyl-(3-hydroxy-pyridine bromide salt-1-yl)-rapamycin], the melting point lay within 120 to 124 °C. In the data set on tumor cell A549, this compound showed an IC50 of 46 µM. In data set [2], this compound had a solubility of 0.1 mg/mL. For the same compound, the IC50 in data set [1] was less than 0.046 µM.

Take `CO[C@H]1C[C@@H]2CC[C@@H](C)[C@@](O)(O2)C(=O)C(=O)N2CCCC[C@H]2C(=O)O[C@H]([C@H](C)C[C@@H]2CC[C@@H](OC(=O)C[n+]3ccc(C)cc3)[C@H](OC)C2)CC(=O)[C@H](C)/C=C(\C)[C@@H](OC(=O)C[n+]2ccc(C)cc2)[C@@H](OC)C(=O)[C@H](C)C[C@H](C)/C=C/C=C/C=C/1C.[Br-].[Br-]` [Example 14, 31,42-O-carbonylmethyl-(4-methyl-pyridine bromide salt-1-yl)-rapamycin]: the melting point was in the range of 181 to 183 °C. Besides, the IC50 with tumor cell A549 was 44 µM. The compound also showed a solubility in data set [2] of 120 mg/mL. In addition, in data set [1], the IC50 was less than 0.046 µM.

`CO[C@H]1C[C@@H]2CC[C@@H](C)[C@@](O)(O2)C(=O)C(=O)N2CCCC[C@H]2C(=O)O[C@H]([C@H](C)C[C@@H]2CC[C@@H](O)[C@H](OC)C2)CC(=O)[C@H](C)/C=C(\C)[C@@H](OC(=O)C[n+]2ccccc2)[C@@H](OC)C(=O)[C@H](C)C[C@H](C)/C=C/C=C/C=C/1C.[Br-]` [Example 16, 31-O-carbonylmethyl-(pyridine bromide salt-1-yl)-rapamycin] gave a melting point of 140 to 142 °C. Besides, it took 57.7 µM to reach half-maximal inhibition with tumor cell A549 (IC50). For the same compound, the IC50 in data set [1] was less than 0.046 µM.

As to `CO[C@H]1C[C@@H]2CC[C@@H](C)[C@@](O)(O2)C(=O)C(=O)N2CCCC[C@H]2C(=O)O[C@H]([C@H](C)C[C@@H]2CC[C@@H](OC(=O)C[n+]3ccccc3)[C@H](OC)C2)CC(=O)[C@H](C)/C=C(\C)[C@@H](OC(=O)C[n+]2ccccc2)[C@@H](OC)C(=O)[C@H](C)C[C@H](C)/C=C/C=C/C=C/1C.[Br-].[Br-]` [Example 7, 31,42-O-carbonylmethyl-(pyridine bromide salt-1-yl)-rapamycin], the melting point lay in the range of 140 to 142 °C. This compound also had an IC50 in the data set on tumor cell A549 of 46.7 µM. In data set [2], this compound displayed a solubility of 85 mg/mL. The compound also displayed an IC50 in data set [1] of less than 0.046 µM.

The compound `CO[C@H]1C[C@@H]2CC[C@@H](C)[C@@](O)(O2)C(=O)C(=O)N2CCCC[C@H]2C(=O)O[C@H]([C@H](C)C[C@@H]2CC[C@@H](OC(=O)C[n+]3cscc3C)[C@H](OC)C2)CC(=O)[C@H](C)/C=C(\C)[C@@H](O)[C@@H](OC)C(=O)[C@H](C)C[C@H](C)/C=C/C=C/C=C/1C.[Br-]` [Example 2, 42-O-carbonylmethyl-(4-methyl-thiazole bromide salt-3-yl)-rapamycin] displayed a melting point of 130 to 133 °C. In the data set with tumor cell A549, this compound showed an IC50 of 19.3 µM. The same compound came in with an IC50 in data set [1] of less than 0.046 µM.

The compound `CO[C@H]1C[C@@H]2CC[C@@H](C)[C@@](O)(O2)C(=O)C(=O)N2CCCC[C@H]2C(=O)O[C@H]([C@H](C)C[C@@H]2CC[C@@H](O)[C@H](OC)C2)CC(=O)[C@H](C)/C=C(\C)[C@@H](OC(=O)C[n+]2cscc2C)[C@@H](OC)C(=O)[C@H](C)C[C@H](C)/C=C/C=C/C=C/1C.[Br-]` [Example 3, 31-O-carbonylmethyl-(4-methyl-thiazole bromide salt-3-yl)-rapamycin] registered a melting point of 130 to 132 °C. Further, in the data set with tumor cell A549, inhibition was half-maximal at 3.04 µM (IC50). In addition, in data set [1], the IC50 was less than 0.046 µM.

Take `CO[C@H]1C[C@@H]2CC[C@@H](C)[C@@](O)(O2)C(=O)C(=O)N2CCCC[C@H]2C(=O)O[C@H]([C@H](C)C[C@@H]2CC[C@@H](OC(=O)C[n+]3csc(C)c3C)[C@H](OC)C2)CC(=O)[C@H](C)/C=C(\C)[C@@H](O)[C@@H](OC)C(=O)[C@H](C)C[C@H](C)/C=C/C=C/C=C/1C` [Example 5, 42-O-carbonylmethyl-(4,5-dimethyl-thiazole bromide salt-3-yl)-rapamycin]: the figures for the IC50 (in the data set with tumor cell A549; in data set [1]) were 7.4 µM and less than 0.046 µM, respectively.

Regarding `CO[C@H]1C[C@@H]2CC[C@@H](C)[C@@](O)(O2)C(=O)C(=O)N2CCCC[C@H]2C(=O)O[C@H]([C@H](C)C[C@@H]2CC[C@@H](OC(=O)C[n+]3cscc3C)[C@H](OC)C2)CC(=O)[C@H](C)/C=C(\C)[C@@H](OC(=O)C[n+]2cscc2C)[C@@H](OC)C(=O)[C@H](C)C[C@H](C)/C=C/C=C/C=C/1C.[Br-].[Br-]` [Example 1, 31,42-O-carbonylmethyl-(4-methyl-thiazole bromide salt-3-yl)-rapamycin], the melting point is 142 to 145 °C. This compound displayed an IC50 with tumor cell A549 of 17.4 µM. The compound also yielded a solubility in data set [2] of 34.5 mg/mL. This compound also had an IC50 in data set [1] of less than 0.046 µM.

As for `CO[C@H]1C[C@@H]2CC[C@@H](C)[C@@](O)(O2)C(=O)C(=O)N2CCCC[C@H]2C(=O)O[C@H]([C@H](C)C[C@@H]2CC[C@@H](OC(=O)C[n+]3ccccc3)[C@H](OC)C2)CC(=O)[C@H](C)/C=C(\C)[C@@H](O)[C@@H](OC)C(=O)[C@H](C)C[C@H](C)/C=C/C=C/C=C/1C.[Br-]` [Example 10, 42-O-carbonylmethyl-(pyridine bromide salt-1-yl)-rapamycin], the melting point is 135 to 137 °C. The compound also had an IC50 with tumor cell A549 of 66.3 µM. The IC50 in data set [1] stood at 10.9 µM.

`CO[C@H]1C[C@@H]2CC[C@@H](C)[C@@](O)(O2)C(=O)C(=O)N2CCCC[C@H]2C(=O)O[C@H]([C@H](C)C[C@@H]2CC[C@@H](OC(=O)C[n+]3cccc(O)c3)[C@H](OC)C2)CC(=O)[C@H](C)/C=C(\C)[C@@H](O)[C@@H](OC)C(=O)[C@H](C)C[C@H](C)/C=C/C=C/C=C/1C.[Br-]` [Example 12, 42-O-carbonylmethyl-(3-hydroxy-pyridine bromide salt-1-yl)-rapamycin]: the melting point lay in the range of 146 to 148 °C. Also, in the data set on tumor cell A549, half-maximal inhibition (IC50) required 51.5 µM. Moreover, the IC50 in data set [1] is less than 0.046 µM.
